Test results published in ChEMBL document CHEMBL2074165, “Evaluation of an immortalized retinal endothelial cell line as an in vitro model for drug transport studies across the blood-retinal barrier” (Pharm Res, 2003).

Target: ATP-dependent translocase ABCB1 (Homo sapiens, UniProt P08183)
Experiment: TP_TRANSPORTER: transepithelial transport (basal to apical) of AGN 197075 at a concentration of 10 uM in MDR1-expressing MDCK cells
Format: functional, cell-based
Details: dog

ATP-dependent translocase ABCB1, sequence (P08183 whole entry): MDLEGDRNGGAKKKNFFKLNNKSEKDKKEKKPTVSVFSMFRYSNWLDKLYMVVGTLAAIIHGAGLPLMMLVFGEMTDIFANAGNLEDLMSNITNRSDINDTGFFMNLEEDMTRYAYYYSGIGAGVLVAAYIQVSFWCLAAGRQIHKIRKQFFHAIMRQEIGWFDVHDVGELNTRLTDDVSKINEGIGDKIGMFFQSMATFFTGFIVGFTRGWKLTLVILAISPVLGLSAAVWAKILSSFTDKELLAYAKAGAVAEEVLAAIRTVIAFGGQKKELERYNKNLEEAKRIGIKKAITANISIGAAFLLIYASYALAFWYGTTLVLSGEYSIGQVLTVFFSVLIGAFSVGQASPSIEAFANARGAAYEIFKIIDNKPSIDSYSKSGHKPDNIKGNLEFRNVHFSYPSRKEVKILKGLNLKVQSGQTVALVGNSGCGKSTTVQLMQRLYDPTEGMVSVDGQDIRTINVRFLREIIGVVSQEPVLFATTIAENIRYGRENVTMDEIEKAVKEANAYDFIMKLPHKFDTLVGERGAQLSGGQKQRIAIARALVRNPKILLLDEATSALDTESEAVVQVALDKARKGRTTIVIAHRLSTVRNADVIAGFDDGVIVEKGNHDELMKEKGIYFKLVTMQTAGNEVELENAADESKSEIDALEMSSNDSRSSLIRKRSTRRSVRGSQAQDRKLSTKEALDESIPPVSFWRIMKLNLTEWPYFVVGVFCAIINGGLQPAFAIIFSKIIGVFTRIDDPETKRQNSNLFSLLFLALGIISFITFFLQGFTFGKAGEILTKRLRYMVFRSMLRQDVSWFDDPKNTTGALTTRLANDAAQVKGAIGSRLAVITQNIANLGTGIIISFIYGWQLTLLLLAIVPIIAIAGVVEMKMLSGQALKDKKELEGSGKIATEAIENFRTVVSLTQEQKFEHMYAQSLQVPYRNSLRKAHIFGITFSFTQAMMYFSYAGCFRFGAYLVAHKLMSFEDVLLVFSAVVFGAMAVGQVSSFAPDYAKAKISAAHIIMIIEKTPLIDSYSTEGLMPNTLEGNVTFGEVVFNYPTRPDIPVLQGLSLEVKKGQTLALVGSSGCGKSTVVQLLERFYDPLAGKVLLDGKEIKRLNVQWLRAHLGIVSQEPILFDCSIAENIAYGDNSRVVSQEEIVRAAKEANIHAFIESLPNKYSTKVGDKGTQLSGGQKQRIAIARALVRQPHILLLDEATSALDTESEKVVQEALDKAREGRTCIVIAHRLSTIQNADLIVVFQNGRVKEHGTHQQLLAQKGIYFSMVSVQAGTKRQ

Activity: substrate [+]
SMILES: OCCNC(=S)NCc1cccc(Cl)c1F
